Laboratory results as given in patent US20240254087A1, “SELECTIVE, PARTIAL, AND ARRESTIN-BIASED 5-HT2A AGONISTS WITH UTILITY IN VARIOUS DISORDERS” (Saint Joseph's University, priority 2021, published 2024).
Entries after “also recorded” stand apart in the source; their conditions may differ. Like-named read-outs stand apart in the source and are kept apart here.

Legend:
5-HT2C = biological target: T1, 5-HT2C (Homo sapiens, UniProt P28335); experiment: BRET Gq dissociation, 5-HT2C; type: cell-based; set-up: expressed in transfected cells; host or cells: HEK293T, transient; settings: for Emax: read-out: 5-HT2C Gq Dissociation (BRET) EMAX ± SEM (%5-HT)
T1 sequence (P28335 33-458): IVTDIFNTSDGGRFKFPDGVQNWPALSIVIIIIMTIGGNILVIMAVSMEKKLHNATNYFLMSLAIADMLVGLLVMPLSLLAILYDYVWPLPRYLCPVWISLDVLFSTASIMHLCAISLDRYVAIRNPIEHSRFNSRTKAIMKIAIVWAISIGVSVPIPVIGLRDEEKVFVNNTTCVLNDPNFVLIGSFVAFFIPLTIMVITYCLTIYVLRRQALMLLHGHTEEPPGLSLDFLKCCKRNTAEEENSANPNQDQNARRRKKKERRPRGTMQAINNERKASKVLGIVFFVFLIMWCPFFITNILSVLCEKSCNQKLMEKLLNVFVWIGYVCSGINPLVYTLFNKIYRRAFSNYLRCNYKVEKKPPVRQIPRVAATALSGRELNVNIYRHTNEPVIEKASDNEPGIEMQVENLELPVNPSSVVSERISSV

5-HT2A = 5-HT2A (Homo sapiens, UniProt P28223); experiment: cell-based; set-up: expressed in transfected cells; host or cells: HEK293T, transient; settings: for Emax: read-out: 5-HT2A β-arrestin Emax (% 5-HT), BRET, mean ± SEM
5-HT2B = 5-HT2B (Homo sapiens, UniProt P41595); experiment: BRET Gq dissociation, 5-HT2B; type: cell-based; set-up: expressed in transfected cells; host or cells: HEK293T, transient; settings: for Emax: read-out: 5-HT2B Gq Dissociation (BRET) EMAX ± SEM (%5-HT)
5-HT6 = 5-HT6 (Homo sapiens, UniProt P50406); experiment: Competitive radioligand binding (NIMH PDSP)
5-HT7 = 5-HT7 (Homo sapiens, UniProt P34969); experiment: Competitive radioligand binding (NIMH PDSP)
5-HT5a = 5-HT5a (Homo sapiens, UniProt P47898); experiment: Competitive radioligand binding (NIMH PDSP)
male C57BL/6J mice = experiment: Head-twitch response (HTR) in mice; type: in vivo, mouse; settings: for ED50: Mus musculus
Summary of the method: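 Head twitches in male C57BL/6J mice (6-8 weeks) carrying head-mounted magnets were detected with a magnetometer coil around a 12-cm glass cylinder during the dark phase. Coil signal was low-pass filtered at 2 kHz and digitized at 20 kHz. Counts were analyzed by one-way ANOVA with Dunnett's post hoc test.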

[1] = read-out: HTR ED50 mg/kg (95% CI), SC, except DOI and 25D-NBOMe IP
[2] = read-out: HTR ED50 μmol/kg (95% CI), SC, except DOI and 25D-NBOMe IP
[3] = SC, except DOI and 25D-NBOMe IP

Sequence of 5-HT5a (P47898 whole entry, species assumed): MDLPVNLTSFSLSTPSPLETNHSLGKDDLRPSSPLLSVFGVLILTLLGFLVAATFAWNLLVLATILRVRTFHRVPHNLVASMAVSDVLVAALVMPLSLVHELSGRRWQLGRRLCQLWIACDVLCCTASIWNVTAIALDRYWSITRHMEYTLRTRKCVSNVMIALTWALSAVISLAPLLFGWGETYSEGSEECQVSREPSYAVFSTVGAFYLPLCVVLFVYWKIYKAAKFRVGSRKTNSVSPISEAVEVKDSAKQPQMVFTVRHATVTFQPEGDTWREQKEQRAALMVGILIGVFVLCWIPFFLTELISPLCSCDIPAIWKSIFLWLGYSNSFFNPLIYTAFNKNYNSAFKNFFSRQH
Sequence of 5-HT2B (P41595 whole entry): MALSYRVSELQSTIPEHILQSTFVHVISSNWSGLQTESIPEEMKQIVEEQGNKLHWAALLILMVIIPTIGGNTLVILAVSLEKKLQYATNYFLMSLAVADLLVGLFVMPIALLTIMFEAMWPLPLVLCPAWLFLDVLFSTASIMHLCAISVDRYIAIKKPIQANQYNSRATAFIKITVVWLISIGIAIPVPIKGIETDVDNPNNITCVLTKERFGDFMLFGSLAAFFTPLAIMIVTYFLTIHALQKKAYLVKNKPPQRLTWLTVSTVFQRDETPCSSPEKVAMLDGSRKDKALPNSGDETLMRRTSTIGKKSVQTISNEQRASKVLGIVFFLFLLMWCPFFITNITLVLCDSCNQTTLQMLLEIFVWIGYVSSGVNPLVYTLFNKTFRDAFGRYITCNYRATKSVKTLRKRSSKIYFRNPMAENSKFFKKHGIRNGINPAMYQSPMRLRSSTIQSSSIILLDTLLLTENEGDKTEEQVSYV
Sequence of 5-HT2A (P28223 whole entry): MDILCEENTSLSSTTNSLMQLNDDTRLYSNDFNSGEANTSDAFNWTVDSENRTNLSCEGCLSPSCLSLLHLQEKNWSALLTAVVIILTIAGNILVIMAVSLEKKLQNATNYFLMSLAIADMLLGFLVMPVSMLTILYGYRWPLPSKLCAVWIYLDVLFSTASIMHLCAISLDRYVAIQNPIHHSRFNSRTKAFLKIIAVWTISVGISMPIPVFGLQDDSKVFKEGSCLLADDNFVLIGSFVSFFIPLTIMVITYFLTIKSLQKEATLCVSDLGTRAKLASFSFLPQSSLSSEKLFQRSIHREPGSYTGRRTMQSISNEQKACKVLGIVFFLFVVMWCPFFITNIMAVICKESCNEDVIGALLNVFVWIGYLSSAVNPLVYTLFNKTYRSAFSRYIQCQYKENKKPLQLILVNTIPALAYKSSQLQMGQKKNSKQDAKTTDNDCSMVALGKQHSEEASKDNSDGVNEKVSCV
Sequence of 5-HT7 (P34969 whole entry, species assumed): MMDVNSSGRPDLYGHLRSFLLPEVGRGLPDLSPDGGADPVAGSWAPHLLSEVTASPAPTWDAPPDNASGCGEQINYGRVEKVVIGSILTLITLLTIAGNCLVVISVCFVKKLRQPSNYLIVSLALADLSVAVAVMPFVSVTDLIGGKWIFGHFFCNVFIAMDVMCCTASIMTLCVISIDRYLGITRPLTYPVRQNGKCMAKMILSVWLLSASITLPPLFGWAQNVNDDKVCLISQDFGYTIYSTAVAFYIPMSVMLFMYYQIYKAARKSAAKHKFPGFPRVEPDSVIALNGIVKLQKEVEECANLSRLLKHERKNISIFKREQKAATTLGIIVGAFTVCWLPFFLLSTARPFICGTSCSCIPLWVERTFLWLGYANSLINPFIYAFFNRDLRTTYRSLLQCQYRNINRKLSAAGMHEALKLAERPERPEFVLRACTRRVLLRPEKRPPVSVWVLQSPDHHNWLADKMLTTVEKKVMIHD
Sequence of 5-HT6 (P50406 whole entry, species assumed): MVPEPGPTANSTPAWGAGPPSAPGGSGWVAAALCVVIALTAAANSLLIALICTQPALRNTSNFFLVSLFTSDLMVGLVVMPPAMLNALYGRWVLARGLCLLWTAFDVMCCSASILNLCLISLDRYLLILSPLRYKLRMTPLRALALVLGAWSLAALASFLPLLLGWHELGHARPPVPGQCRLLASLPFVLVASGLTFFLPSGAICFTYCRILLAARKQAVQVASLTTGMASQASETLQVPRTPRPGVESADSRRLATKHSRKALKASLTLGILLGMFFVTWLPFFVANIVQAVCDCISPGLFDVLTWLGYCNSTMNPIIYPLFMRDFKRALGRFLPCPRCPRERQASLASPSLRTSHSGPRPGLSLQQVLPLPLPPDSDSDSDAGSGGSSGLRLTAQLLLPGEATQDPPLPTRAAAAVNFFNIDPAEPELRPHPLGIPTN

SMILES | EC50 (5-HT2C) [µM] | Emax (5-HT2C) [%] | Emax (5-HT2A) [%] | EC50 (5-HT2B) [µM] | Emax (5-HT2B) [%] | Ki (5-HT6) [µM] | Ki (5-HT7) [µM] | Ki (5-HT5a) [µM] | Induction of the HTR in mice (in words) (male C57BL/6J mice) | Max HTR response during a 30-min assessment (maximum counts ÷ baseline response) (male C57BL/6J mice) | ED50 (male C57BL/6J mice; [1]) [mg/kg] | other results
COc1cc([N+](=O)[O-])c(OC)cc1CCN [2C-N (1), 2-(2,5-dimethoxy-4-nitrophenyl)ethan-1-amine, reference compound] | 0.0126 | 78.4 ± 2.5 | 83.8 ± 2.5 | 0.0741 | 87.7 ± 2.8 | 0.251 | > 10 | > 10 |  |  |  | 
COc1cc([N+](=O)[O-])c(OC)cc1CCNCc1cccc2ccccc12 [25N-N-1-Nap (16), [2-(2,5-dimethoxy-4-nitrophenyl)ethyl][(naphthalen-1-yl)methyl]amine] | 0.0186 | 34.1 ± 4.4 | 78.2 ± 1.8 |  |  | 0.0794 | 0.186 | 1.1 | failed to induce the HTR | 1.2-fold increase | > 30 | 5-HT2B Gq Dissociation (BRET) EMAX ± SEM (%5-HT) (5-HT2B): No activity; 5-HT2B Gq Dissociation (BRET) pEC50 ± SEM (5-HT2B): No activity
COc1cc([N+](=O)[O-])c(OC)cc1CCNCc1ccccc1 [25N-NB (2), Benzyl[2-(2,5-dimethoxy-4-nitrophenyl)ethyl]amine] | 0.00851 | 89.4 ± 2.3 | 115 ± 4.1 | 0.038 | 32.6 ± 2.3 |  |  |  |  | 9.1-fold increase | 1.25 | ED50 (male C57BL/6J mice; [2]): 3.53 µmol/kg
COc1cc([N+](=O)[O-])c(OC)cc1CCNCc1cccc(F)c1OC [25N-NB-2-MeO-3-F (19), [2-(2,5-dimethoxy-4-nitrophenyl)ethyl][(3-fluoro-2-methoxyphenyl)methyl]amine] |  |  | 120 ± 3.3 |  |  | > 10 | > 10 | 2.88 |  |  |  | 
COc1cc([N+](=O)[O-])c(OC)cc1CCNCc1cccc(C)c1O [25N-NB-2-OH-3-Me (18), 2-({[2-(2,5-dimethoxy-4-nitrophenyl)ethyl]amino}methyl)-6-methylphenol] | 0.00214 | 45.8 ± 2.4 | 131 |  |  | 0.209 | 0.871 | 0.501 | failed to induce the HTR; also recorded: do not induce the HTR | 1.0-fold increase | > 10 | Difference in Emax (β-arrestin vs Gq) (5-HT2A; BRET): 81%; 5-HT2A β-arrestin Emax (% 5-HT) (5-HT2A; BRET, mean ± SEM): 130.7 ± 4.0 % 5-HT; 5-HT2B Gq Dissociation (BRET) EMAX ± SEM (%5-HT) (5-HT2B): No activity; 5-HT2B Gq Dissociation (BRET) pEC50 ± SEM (5-HT2B): No activity
COc1cc([N+](=O)[O-])c(OC)cc1CCNCc1cccc(C)c1 [25N-NB-3-Me (22), [2-(2,5-dimethoxy-4-nitrophenyl)ethyl][(3-methylphenyl)methyl]amine] |  |  | 94.7 ± 4.2 |  |  |  |  |  |  |  |  | 
COc1cc([N+](=O)[O-])c(OC)cc1CCNCc1cccc(O)c1 [25N-NB-3-OH (21), 3-({[2-(2,5-dimethoxy-4-nitrophenyl)ethyl]amino}methyl)phenol] |  |  | 119 ± 5.2 |  |  | 0.0692 | > 10 | > 10 | inactive in the HTR | 1.7-fold increase | > 30 | Induction of the HTR in mice (in words) (male C57BL/6J mice; listed as 25N—NB-3-HO (21)): do not induce the HTR
COc1cc([N+](=O)[O-])c(OC)cc1CCNCc1ccccc1C(F)(F)F [25N-NBCF3 (14), [2-(2,5-dimethoxy-4-nitrophenyl)ethyl]({[2-(trifluoromethyl)phenyl]methyl}) amine] |  |  |  |  |  | 0.407 | > 10 | > 10 | lacked a HTR; also recorded: failed to induce a HTR; also recorded: do not induce the HTR | 2.6-fold increase | > 30 | 
COc1cc([N+](=O)[O-])c(OC)cc1CCNCc1ccccc1I [25N-NBI (10)] | 0.0871 | 71.5 ± 2.2 |  | 0.0295 | 21.8 ± 2.3 | 0.38 | > 10 | > 10 |  | 3.0-fold increase | 4.94 | ED50 (male C57BL/6J mice; [2]): 10.3 µmol/kg
COc1cc([N+](=O)[O-])c(OC)cc1CCNCc1ccccc1[N+](=O)[O-] [25N-NBNO2 (15), [2-(2,5-dimethoxy-4-nitrophenyl)ethyl][(2-nitrophenyl)methyl]amine] | 0.148 | 61.3 ± 4.4 |  |  |  | > 10 | > 10 | > 10 | lacked a HTR; also recorded: failed to induce a HTR; also recorded: do not induce the HTR | 1.9-fold increase | > 100 | 5-HT2B Gq Dissociation (BRET) EMAX ± SEM (%5-HT) (5-HT2B): No activity; 5-HT2B Gq Dissociation (BRET) pEC50 ± SEM (5-HT2B): No activity
COc1cc([N+](=O)[O-])c(OC)cc1CCNCc1ccccc1OC(F)(F)F [25N-NBOCF3 (12)] |  |  |  |  |  |  |  |  | do not induce the HTR | 3.9-fold increase |  | HTR ED50 μmol/kg (95% CI) (male C57BL/6J mice; [3]): 13.5 (6.81-26.8) μmol/kg; HTR ED50 mg/kg (95% CI) (male C57BL/6J mice; [3]): 5.90 (2.97-11.7) mg/kg; 5-HT6 pKi affinity (Ki ± SEM) (5-HT6): 6.12; 5-HT7 pKi affinity (Ki ± SEM) (5-HT7): <5; 5-HT5a pKi affinity (Ki ± SEM) (5-HT5a): 5.80
COc1cc([N+](=O)[O-])c(OC)cc1CCNCc1ccccc1OC [25N-NBOMe (4), [2-(2,5-dimethoxy-4-nitrophenyl)ethyl] [(2-methoxyphenyl)methyl]amine] | 0.000302 | 112 ± 2.8 | 136 ± 3.8 | 0.00389 | 61.8 ± 2.3 | 0.055 | > 10 | > 10 |  | 15.6-fold increase | 0.11 | ED50 (male C57BL/6J mice; [2]): 0.29 µmol/kg
COc1cc([N+](=O)[O-])c(OC)cc1CCNCc1ccccc1-c1ccccc1 [25N-NBPh (17), ({[1,1′-biphenyl]-2-yl}methyl)[2-(2,5-dimethoxy-4-nitrophenyl)ethyl]amine] | 0.646 | 96.9 ± 10 | 109 ± 2.8 | 0.316 | 47 ± 5.5 |  |  |  | lacked a HTR | 2.1-fold increase | > 100 | 
